The record followed here is patent publication US9067928B2 (Genentech, Inc., priority 2008, dated 2015).

T1 sequence (Q07817 whole entry, species assumed): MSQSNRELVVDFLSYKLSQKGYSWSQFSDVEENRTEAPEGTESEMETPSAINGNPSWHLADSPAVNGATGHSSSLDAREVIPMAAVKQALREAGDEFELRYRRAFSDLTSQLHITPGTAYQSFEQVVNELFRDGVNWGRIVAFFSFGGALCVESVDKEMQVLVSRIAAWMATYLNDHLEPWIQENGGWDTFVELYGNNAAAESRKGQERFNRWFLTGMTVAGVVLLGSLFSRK

This test addresses T1, Bcl-xL (Homo sapiens, UniProt Q07817).
T1 construct: made in house
Kind of test: Alpha Screen Bcl-xL binding assay, competition with Bim26-mer. Particulars: values listed in the order of Table 1; read-out: Alphascreen results (IC50). The protocol: The measurement of competition of compounds of the invention with Bim26-mer for a Bcl-2 family protein binding site using an Alpha Screen Bcl-xL Binding Assay:
The BH3 proteins ALPHASCREEN™ assay was used to identify active small molecules Bcl-2 family protein screen. e.g., Bcl-xL, hmMcl-1 screen. To determine an accurate estimation of the IC50, the compounds were routinely tested at starting concentrations, 100 μM and/or 1 μM and serially titrated 3 fold over 11 dilutions.
The beads come in close proximity when the protein and the peptides interact. Donor beads contain a photosensitiser that converts oxygen to an excited form of O2 at an excitation of 680 nm. Energy is transformed from the singlet oxygen and reacts with chemiluminescers on the acceptor bead, resulting in light emission at 520-620 nm. […] With this information, the IC50 of each compound was calculated
GST-Bcl-xL, GST-hmMcl-1 and biotinylated GST proteins were prepared in-house and were stored as stock solutions at −80° C. The biotinylated-Bak, and biotinylated-Bim peptides were purchased from Auspep and were stored as 500 μM stock solutions in 100% DMSO at −80° C. The ALPHASCREEN™ GST (Glutathione-S-Transferase) Detection Kit was obtained from Perkin Elmer Lifesciences (Cat #6760603R). The Proxiplates, white 384 well flat-Bottom plates were purchased from Interpath Services, Melbourne (Cat #784075). The seals to cover the plates were purchased from Proscience. Melbourne (Cat#784075). DMSO was purchased from AnalaR. The 384 deep well plates and the Polypropylene 50 μL, V bottom polypropylene compound plates were purchased from Matrical.
Compounds of the invention were prepared as 10 mM stocks with 100% DMSO on the day prior to performing the assay. […] To achieve a final compound concentration of 1 μM, in a separate matrical plate, 28 μL of 100% DMSO and 2 μL of 10 mM compound was added to a well, mixed well. 2 μL of this solution was taken and added to 38 μL of 100% DMSO. 20 μL of this solution was added to the test matrical plate. Several control compounds were included in the test plates. For the control wells 15 μL 100% DMSO only was added to the appropriate wells of each plate. The compound plates were then serially diluted 2 fold using the MiniTrak. Once titrations were complete, the compound plate was immediately covered with a foil seal to prevent evaporation.
The assay and bead buffers were prepared fresh. Each titrated compound plate was assayed in duplicate. The following volumes were sufficient to run 12 Proxiplates (4 assay plates run in duplicate in each of Bclxl, hmMcl and counter assays)
Protein and Peptide Preparation; and Assay Performance • 1. The assay and bead buffers were used to prepare the acceptor and donor solutions. ALPHASCREEN™ beads are light sensitive and therefore prepared in a darkened room. 2.5 μL of beads were added per 1 mL of buffer. • 2. The volume of protein or peptide to add was calculated using the following formula:
[formula] • C1=Final Concentration of protein/peptide • C2=Stock Concentration of protein/peptide • V1=Total Volume of Acceptor/Donor Solution • V2=Volume of stock protein/Peptide to add to Acceptor/Donor solution • 3. The assay components were prepared as separate Acceptor and Donor Solutions. The Acceptor Solution contained Acceptor heads and target protein, while the Donor Solution contained Donor beads and biotinylated peptide.
• 4. After the solutions were prepared, they were left to incubate for 30 minutes at room temperature to allow the beads to bind to the protein and the peptide. • 5. 50 μL of Bcl-xL solution, 50 μL of hmMcl-1 solution and 50 µL of biotinylated-GST were added into separate deep wells on an assay plate. A control […]. Assay/Bead buffer was added separate well plates (no protein). • 6.
What is called IC50 is the concentration at which inhibition is half-maximal. As for `CN1CCN(C(=O)Nc2nc3ccccc3s2)c2cc(-c3cccc(C(=O)O)n3)ccc21` [Example 3], the IC50 is 5390 nM.

Take `CC(C)COc1ccc(-c2ccc3c(c2)N(C(=O)Nc2nc4ccccc4s2)CCC3)nc1C(=O)O` [Example 4]: the IC50 was 1440 nM.

Take `O=C(O)c1nc(-c2ccc3c(c2)N(C(=O)Nc2nc4ccccc4s2)CCC3)ccc1OCCOc1ccccc1` [Example 19]: the IC50 is 2 nM.

Take `Nc1cccc(OCc2cccc(-c3ccc(-c4ccc5c(c4)N(C(=O)Nc4nc6ccccc6s4)CCC5)nc3C(=O)O)c2)c1` [Example 41]: the IC50 is 5 nM.

For the compound `O=C(O)c1nc(-c2ccc3c(c2)N(C(=O)Nc2nc4ccccc4s2)CCC3)ccc1OCCCOc1cccc2cccnc12` [Example 46], the IC50 was 10 nM.

As to `Cc1ccc(-c2sc(-c3ccc4c(c3)N(C(=O)Nc3nc5ccccc5s3)CCO4)nc2C(=O)O)cc1` [Example 64, 2-(4-(benzo[d]thiazol-2-ylcarbamoyl)-3,4-dihydro-2H-benzo[b][1,4]oxazin-6-yl)-5-p-tolylthiazole-4-carboxylic acid], the IC50 worked out at 310 nM.

On to `O=C(O)c1nc(-c2ccc3c(c2)N(C(=O)Nc2nc4ccccc4s2)CCC3)sc1Oc1ccc(F)cc1` [Example 65, 2-(1-(benzo[d]thiazol-2-ylcarbamoyl)-1,2,3,4-tetrahydroquinolin-7-yl)-5-(4-fluorophenoxy)thiazole-4-carboxylic acid], for which the IC50 was 230 nM.

Take `COc1ccc(-c2sc(-c3ccc4c(c3)N(C(=O)Nc3nc5ccccc5s3)CCO4)nc2C(=O)O)cc1` [Example 66, 2-(4-(benzo[d]thiazol-2-ylcarbamoyl)-3,4-dihydro-2H-benzo[b][1,4]oxazin-6-yl)-5-(4-methoxyphenyl)thiazole-4-carboxylic acid]: the IC50 was determined as 110 nM.

As to `COc1cccc(-c2sc(-c3ccc4c(c3)N(C(=O)Nc3nc5ccccc5s3)CCO4)nc2C(=O)O)c1` [Example 67, 2-(4-(benzo[d]thiazol-2-ylcarbamoyl)-3,4-dihydro-2H-benzo[b][1,4]oxazin-6-yl)-5-(3-methoxyphenyl)thiazole-4-carboxylic acid], the IC50 turned out to be 200 nM.

As to `COc1ccc(Oc2sc(-c3ccc4c(c3)N(C(=O)Nc3nc5ccccc5s3)CCO4)nc2C(=O)O)cc1` [Example 69, 2-(4-(benzo[d]thiazol-2-ylcarbamoyl)-3,4-dihydro-2H-benzo[b][1,4]oxazin-6-yl)-5-(4-methoxyphenoxy)thiazole-4-carboxylic acid], the IC50 worked out at 680 nM.

Regarding `NC(=O)c1nc(-c2ccc3c(c2)N(C(=O)Nc2nc4ccccc4s2)CCC3)sc1Oc1ccc(F)cc1` [Example 70, 2-(1-(benzo[d]thiazol-2-ylcarbamoyl)-1,2,3,4-tetrahydroquinolin-7-yl)-5-{4-fluorophenoxy)thiazole-4-carboxamide], the IC50 stood at 10000 nM.

Regarding `COc1ccc(-c2sc(-c3ccc4c(c3)N(C(=O)Nc3nc5ccc(F)cc5s3)CCC4)nc2C(=O)O)cc1` [Example 72, 2-(1-(6-fluorobenzo[d]thiazol-2-ylcarbamoyl)-1,2,3,4-tetrahydroquinolin-7-yl)-5-(4-methoxyphenyl)thiazole-4-carboxylic acid], the IC50 amounted to 10100 nM.

On to `O=C(O)c1nc(-c2ccc3c(c2)N(C(=O)Nc2nc4ccccc4s2)CCO3)sc1CCCSc1ccncc1` [Example 73, 2-(4-(benzo[d]thiazol-2-ylcarbamoyl)-3,4-dihydro-2H-benzo[b][1,4]oxazin-6-yl)-5-(3-(pyridin-4-ylthio)propyl)thiazole-4-carboxylic acid], for which the IC50 is 8 nM.

Take `CN(CCOc1ccccc1)c1sc(-c2ccc3c(c2)N(C(=O)Nc2nc4ccccc4s2)CCO3)nc1C(=O)O` [Example 76, 2-(4-(benzo[d]thiazol-2-ylcarbamoyl)-3,4-dihydro-2H-benzo[b][1,4]oxazin-6-yl)-5-(methyl(2-phenoxyethyl)amino)thiazole-4-carboxylic acid]: the IC50 is 390 nM.

As to `O=C(O)c1nc(-c2ccc3c(c2)N(C(=O)Nc2nc4ccccc4s2)CCO3)sc1CCCCc1ccccc1` [Example 77, 2-(4-(benzo[d]thiazol-2-ylcarbamoyl)-3,4-dihydro-2H-benzo[b][1,4]oxazin-6-yl)-5-(4-phenylbutyl)thiazole-4-carboxylic acid], the IC50 stood at 120 nM.

As to `O=C(O)c1nc(-c2ccc3c(c2)N(C(=O)Nc2nc4ccccc4s2)CCC3)sc1CCCOc1ccccc1` [Example 78, 2-(1-(benzo[d]thiazol-2-ylcarbamoyl)-1,2,3,4-tetrahydroquinolin-7-yl)-5-(3-phenoxypropyl)thiazole-4-carboxylic acid], the IC50 was 0.6 nM.

Consider `Nc1cccc(OCCCc2sc(-c3ccc4c(c3)N(C(=O)Nc3nc5ccccc5s3)CCC4)nc2C(=O)O)c1` [Example 82, 5-(3-(3-aminophenoxy)propyl)-2-(1-(benzo[d]thiazol-2-ylcarbamoyl)-1,2,3,4-tetrahydroquinolin-7-yl)thiazole-4-carboxylic acid], for which the IC50 worked out at 0.7 nM.

Consider `NCc1ccc(OCCCc2sc(-c3ccc4c(c3)N(C(=O)Nc3nc5ccccc5s3)CCO4)nc2C(=O)O)cc1` [Example 83, 5-(3-(4-(aminomethyl)phenoxy)propyl)-2-(4-(benzo[d]thiazol-2-ylcarbamoyl)-3,4-dihydro-2H-benzo[b][1,4]oxazin-6-yl)thiazole-4-carboxylic acid], for which the half-inhibitory concentration (IC50) came out at 5 nM.

For the compound `CC(C)(C)OC(=O)Nc1ccc(OCCCc2sc(-c3ccc4c(c3)N(C(=O)Nc3nc5ccccc5s3)CCC4)nc2C(=O)O)cc1` [Example 85, 2-(1-(benzo[d]thiazol-2-ylcarbamoyl)-1,2,3,4-tetrahydroquinolin-7-yl)-5-(3-(4-(tert-butoxycarbonylamino)phenoxy)propyl)thiazole-4-carboxylic acid], the IC50 amounted to 0.5 nM.

Regarding `O=C(O)c1nc(-c2ccc3c(c2)N(C(=O)Nc2nc4ccccc4s2)CCO3)ccc1OCCCc1ccccc1` [Example 88, 6-(4-(benzo[d]thiazol-2-ylcarbamoyl)-3,4-dihydro-2H-benzo[b][1,4]oxazin-6-yl)-3-(3-phenylpropoxy)picolinic acid], the IC50 was 65 nM.

As for `O=C(O)c1nc(-c2ccc3c(c2)N(C(=O)Nc2cc4ccccn4n2)CCO3)ccc1OCCCc1ccccc1` [Example 89, 3-(3-phenylpropoxy)-6-(4-(pyrazolo[1,5-a]pyridin-2-ylcarbamoyl)-3,4-dihydro-2H-benzo[b][1,4]oxazin-6-yl)picolinic acid], the IC50 came to 235 nM.

Take `CS(=O)(=O)NC(=O)c1nc(-c2ccc3c(c2)N(C(=O)Nc2nc4ccccc4s2)CCO3)ccc1OCCCc1ccccc1` [Example 91, N-(benzo[d]thiazol-2-yl)-6-(6-(methylsulfonylcarbamoyl)-5-(3-phenylpropoxy)pyridin-2-yl)-2H-benzo[b][1,4]oxazin-4(3H)-carboxamide]: the half-inhibitory concentration (IC50) amounted to 140 nM.

For the compound `O=C(O)c1nc(-c2ccc3c(c2)N(C(=O)Nc2nc4ccccc4s2)CCC3)sc1Oc1ccc(-n2ncc3cncnc32)cc1` [Example 93, 5-(4-(1H-pyrazolo[3,4-d]pyrimidin-1-yl)phenoxy)-2-(1-(benzo[d]thiazol-2-ylcarbamoyl)-1,2,3,4-tetrahydroquinolin-7-yl)thiazole 4-carboxylic acid], the IC50 turned out to be 40 nM.
